Measured values as given in the NIST ThermoML archive (doi:10.1016/j.fluid.2016.08.019).
± gives the expanded uncertainty stated by the source.

What was measured:
[1] = Crystal; DTA
[2] = Molar enthalpy of transition or fusion; conditions: Crystal; DSC

Normal melting temperature [1]: 138.33 ± 0.39 °C
Molar enthalpy of transition or fusion [2]: 4.89 ± 0.222 kcal/mol
Compound: CCOc1ccccc1C(N)=O [Ethenzamide]
